In one experiment the test system is 4T1 tumors. Briefly: Tumor growth and survival in vivo, subcutaneous 4T1 tumors in Balb/c mice. To be noted: 40 mg/kg, gavage, daily; for Inhibition of tumor growth at 7 days: Balb/c mice with 4T1 tumors. As for the experimental part: All the animal procedures were conducted according to our institutional guidelines after approval by the ethics committee. The 4T1 cells were cultured as previously, dissociated in trypsin, washed twice with cold PBS and resuspended in 1.5 million/ml PBS. 4T1 tumors were obtained by subcutaneous transplantation of 0.150 million cells in 100 μL into the flank of female Balb/c mice (9 weeks old, […]). When the tumors reached a volume of 50-100 mm^3, the mice were gavaged with 40 mg/kg of DX101 or 40 mg/kg of DX111 or the control vehicle (water). Treatment was performed daily until the end of the experiment (tumor volume >1000 mm^3). Tumor volume was determined daily using a caliper and calculated using the formula: ½×(Length*Width^2). The percentage of tumor growth inhibition was determined using the following formula: 100×(1-(Tumor volume, day 7/tumor volume day 0)DX111)/(1-(Tumor volume, day 7/tumor volume day 0)vehicle).
The Kaplan-Meier method was used to compare animal survival.

For a further experiment, the system named is MCF-7 breast tumor cells. Briefly: cells. It counts as cell-based. To be noted: for cell viability in MTT compared with the control: 1, 2.5 or 5 μM, 48 h; for viability at 5 µM: Homo sapiens, MCF7, 48 h, read-out: percentage of cell viability relative to the control group. As for the experimental part: A cell viability test was performed on MCF-7 (Michigan Cancer Foundation-7) breast tumor cells […] (ER(+) cells).
The MCF-7 cells are in a cell culture medium identical to that of Example 5 and are seeded in 12-well plates at 50 000 cells per well. 24 hours after seeding, the cells are treated with vehicle solvate comprising water and ethanol with a 1% o ratio of ethanol, 3β-fluoro-5α-hydroxy-6β-[2-(1H-imidazol-4-yl)ethylamino]cholestane, and 5α-hydroxy-6β-[2-(1H-imidazol-4-yl)ethylamino]cholestan-3β-ol at 1, 2.5 or 5 μM. The cells are observed under an inverted microscope and photographed via the microscope camera at 24 h and 48 h. The morphological changes in the cells at 1 μM are very small. […] The effects are more marked at 2.5 μM and 5 μM with an increase in the number of dead cells. […] After 24 h of treatment with 3β-fluoro-5α-hydroxy-6β-[2-(1H-imidazol-4-yl)ethylamino]-cholestane at 5 μM, 99% of the observed cells are supernatant, reflecting cell death, and 1% of the cells are adherent and show white vesicles. […] The cytostatic effect is illustrated by an inhibition of cell proliferation.
The cell viability is measured by labeling with MTT at 48 hours. This test is based on the use of the tetrazolium salt MTT (3-(4,5-dimethylthiazol-2-yl)-2,5-diphenyltetrazolium bromide). Tetrazolium is reduced by mitochondrial succinate dehydrogenase in active living cells to formazan, a purple colored precipitate. The amount of precipitate formed is proportional to the amount of living cells but also to the metabolic activity of each cell. Thus, a simple determination of the optical density at 540 nm by spectroscopy makes it possible to determine the relative amount of living and metabolically active cells. After 48 hours, the medium is aspirated, and the cells are washed with phosphate-buffered saline (PBS) and then incubated with MTT (0.5 mg/ml in PBS) for about 2 hours. The MTT solution is aspirated and the purple crystals are dissolved in dimethyl sulfoxide (DMSO). The OD (optical density) is measured at 540 nm.
The control group is prepared in a similar manner to the groups studied without the addition of the molecules studied in the present text. […] For a concentration of 5 μM, the viability is close to 0%. This reflects the ability of the compound of formula (I) to kill mammary tumor cells.

Experiment [1] deals with murine 4T1 mammary tumor cells. Briefly: Cell viability of 4T1 cells, CellTox Green Cytotoxicity Assay. It counts as cell-based. The settings on record: Mus musculus, 4T1, Green Cytotoxicity Assay, 48 h. The method, then: (§1) Cell viability tests were performed on murine 4T1 mammary tumor cells characterized as triple negative (HER2-, ER-, PR-).
(§2) For this experiment, a cell culture medium was prepared. The culture medium consisted of Dulbecco's Modified Eagle Medium (DMEM, sold by Westburg as LO BE12-604F), comprising 4.5 g/L glucose with L-glutamine, to which 10% fetal calf serum (FCS) and 50 U/ml penicillin/streptomycin are added. The 4T1 cells were introduced into this culture medium.
(§3) 96-well plates were seeded with 2000 4T1 cells per well. After 72 hours (h) of culture under normal condition, i.e. in an incubator at 37° C. at […], the 4T1 cells were treated for 48 h with DX101, DX103, DX111, DX123, DX125, DX127 and DX129 at 100 nM, 1 μM, 2.5 μM and 10 μM. A control condition (CTL) is also performed in parallel using the previously described protocol without treatment with the molecules DX101, DX103, DX111, DX123, DX125, DX127 or DX129.
For the third method, the percentage viability is determined using the CellTox Green Cytotoxicity Assay kit (Promega). This assay measures cell death via a change in membrane integrity. […] Consequently, the higher the fluorescence in the wells, the greater the cell death. […] The percentage of cell death is determined using the 100% cell death control (made from untreated cells incubated in the presence of the lysis solution for 30 minutes at 37° C. prior to the addition of Celltox green reagent), and the cell viability in each well is then deduced from this percentage. The IC50 is then determined as explained previously.

Experiment [2] has as its system murine 4T1 mammary tumor cells. Briefly: Cell viability of 4T1 cells, LDH. Type of experiment: cell-based. The settings on record: Mus musculus, 4T1, LDH, 48 h. As for the experimental part: as §1, §2, §3
For the second method, the percentage of viability is determined by assaying the activity of the enzyme LDH (lactate dehydrogenase) in cell supernatants using the non radioactive cytotoxicity assay kit (Promega). LDH is an enzyme released in the supernatant of dead cells. The higher the LDH activity in the supernatant, the greater the cell death. In this enzyme assay, the LDH released converts a violet tetrazolium salt to a red colored formazan, absorbing at 490 nm. The intensity of the red color is proportional to the number of dead cells. After 48 h of treatment, the supernatants are transferred to a new 96-well plate and incubated for 30 minutes in the presence of substrate mix at room temperature. The reaction is stopped with stop solution reagent and the absorbance is determined at 490 nm. The percentage of cell death is determined here using a 100% maximum LDH activity control (made from untreated cells incubated in the presence of lysis solution for 45 minutes at 37° C. just prior to addition of the substrate mix), and the cell viability in each well is then deduced from this percentage. The IC50 is then determined as explained in the preceding paragraph.

Where [3] appears, read: log of IC50 in μM, read-out: Mean LogIC50 (±SEM) (converted).

2 compounds from patent US20230391817A1, “5ALPHA-HYDROXY-6BETA-[2-(1-H-IMIDAZOL-4-YL)-ETHYLAMINO]-CHOLESTAN-3BETA-OL ANALOGUES AND PHARMACEUTICAL COMPOSITIONS COMPRISING SAME FOR USE IN THE TREATMENT OF CANCER” (priority 2020, published 2023) can be followed below.

Structures are written as SMILES.

Turning to `CC(C)CCC[C@@H](C)[C@H]1CC[C@H]2[C@@H]3C[C@@H](NCCc4c[nH]cn4)[C@@]4(O)C[C@@H](O)CC[C@]4(C)[C@H]3CC[C@]12C` [DX101, 5α-hydroxy-6β-[2-(1H-imidazol-4-yl)ethylamino]cholestan-3β-ol, reference compound], in the experiment on 4T1 tumors, the median survival is recorded as 9 days, the “survival after 15 days of treatment” value stood at 0% and the “Inhibition of tumor growth at 7 days” value stood at 48%. Further, in the experiment with MCF-7 breast tumor cells, the “cell viability in MTT compared with the control” value is “dose-dependent decrease” and the viability at 5 µM was about 0%. Further, in experiment [1] (setting [3]), the IC50 is 2.69 µM. Further, in experiment [1] (read-out: IC50), the IC50 was determined as 2.68 µM. In experiment [2] (setting [3]), the IC50 is 3.24 µM. Besides, the IC50 in experiment [2] (read-out: IC50) was 3.24 µM.

On to `CC(C)CCC[C@@H](C)[C@H]1CC[C@H]2[C@@H]3C[C@@H](NCCc4c[nH]cn4)[C@@]4(O)C[C@@H](F)CC[C@]4(C)[C@H]3CC[C@]12C` [DX111, 3β-fluoro-5α-hydroxy-6β-[2-(1H-imidazol-4-yl)ethylamino]cholestane], for which, in the experiment on 4T1 tumors, the median survival was 10 days, the “survival after 15 days of treatment” value is recorded as 25% and the “Inhibition of tumor growth at 7 days” value was determined as 67%. Further, the “effect on tumor growth reduction compared with DX101” value in the experiment with 4T1 tumors (p<0.01) was “superior effect”. Also, in the experiment with MCF-7 breast tumor cells, the “cell viability in MTT compared with the control” value was “dose-dependent decrease” and the viability at 5 µM was about 0%. Also, the IC50 in experiment [1] (setting [3]) is 2.19 µM. The IC50 in experiment [1] (read-out: IC50) was determined as 2.18 µM. The IC50 in experiment [2] (setting [3]) was 1.86 µM. The IC50 in experiment [2] (read-out: IC50) was 1.88 µM.

A word on the viability: it is a read-out of living cells in per cent, often relative to untreated cells.
